# Laboratory results: patent publication US20100093637A1, “PEPTIDES AND USE THEREOF” (priority 2005, published 2010)
# Test system: Human fibroblasts
# Assay: Stimulation of collagen synthesis measured by incorporation of tritiated proline in fibroblast collagenic fractions
# Format: cell-based
# Details: 72 hours of treatment
# Procedure: The stimulation of collagen synthesis by peptides of the present invention was evaluated by measuring the incorporation of tritiated proline in fibroblasts collagenic fractions. The assay was conducted as follows. Human fibroblasts (obtained from the human biopsy of a person) were seeded in 24-well plates at approximately 40,000 cells per well in 1 ml of culture medium. The culture medium contained DMEM (Invitrogen S.a.r.l., Cergy Pontoise, France) supplemented with 10% Fetal Calf Serum (FCS, Cambrex Bio Science Paris S.a.r.l., Emerainville, France), 1% Glutamax (Invitrogen S.a.r.l.), 4 μg/ml gentamicine (Invitrogen S.a.r.l.), and 2.5 μg/ml Fungizone (Invitrogen S.a.r.l.). Cells were placed at 37° C. under 5% CO2 in a humidified atmosphere for 72 hours.
# The culture medium was the removed and replaced with 1 ml of either: (i) incubation medium alone (untreated control); (ii) incubation medium further containing 1 ng/ml TGFb1 (R&D Systems Europe, Lille, France) for use as a stimulated positive control; or (iii) incubation medium further containing one of the tested peptides at a concentration of 1 μg/ml or 10 μg/ml. The incubation medium contained DMEM supplemented with 2% FCS, 1% Glutamax, 4 μg/ml gentamicine, 2.5 μg/ml Fungizone, 50 μg/ml ascorbic acid, 50 μg/ml b-aminoproionitrile, and 3.4 μg/ml a ketoglutarate.
# During the last 24 hours of incubation, five μCi of tritiated proline (L-2,3-3H proline, Amersham Biosciences Europe, Saclay, France) was also added to each well. Each condition (untreated control, positive control and tested peptide) was performed in triplicate. In order to normalize the results, the same experiment was performed in parallel, except that tritiated proline was omitted. At the end of the treatment, cells were counted with a coulter counter. After 72 hours of treatment, incubation medium (supernatants) were collected in 2 ml microtubes and frozen at −20° C.
# In order to perform the collagen extraction, 1 ml of cold 20% TCA (Sigma-Aldrich, Lyon, France) was added to 1 ml of supernatant. The samples were then vortexed, incubated for 5 minutes (min) at −20° C., and let stand on ice for 30 min. The samples were then centrifuged (2300 g, 5 min, 4° C.). The supernatants were then eliminated, and the pellets were rinsed with 1 ml of cold 5% TCA, vortexed, and centrifuged (2300 g, 5 min, 4° C.). The pellets were then rinsed twice with 5% TCA following the same procedure as described above. The pellets were then dissolved in 0.3 ml of 0.05 N NaOH and neutralized with 0.1N HCl to reach pH 6-8. Then, 0.2 ml of protein solution was incubated for 2 hours at 37° C. in 2×Tris HCl Buffer containing 10 units of collagenase activity (Clostridium hystolyticum Type III collagenase, Sigma-Aldrich, Lyon, France).
# The enzymatic reaction was then stopped by precipitation with 500 μl of 15% TCA and 500 μl of 0.75% tannic acid. Samples were then incubated 30 min on ice. The precipitates were then centrifuged (2300 g, 5 min, 4° C.). The supernatants containing collagen fractions were collected, and scintillation liquid (Ecolume ICN) was added to each sample (5 ml to 100 μl sample). Then, radioactivity was measured in a β-scintillation counter.
# The rate of collagen synthesis was calculated as follows: Synthesis rate=(number of dpm/cell number)*1000
# The percentage of stimulation was calculated as follows: % of stimulation=[(synthesis rate in sample-synthesis rate in control)/(synthesis rate in control)]*100.
# [1] = peptide at 1 ug/ml in incubation medium
# [2] = peptide at 10 ug/ml in incubation medium
Substance,Percent stimulation vs. control [1],"Percent stimulation vs. control (peptide at 1 ug/ml in incubation medium, listed as VFTRN)",Percent stimulation vs. control [2],"Percent stimulation vs. control (peptide at 10 ug/ml in incubation medium, listed as VFTRN)","Percent stimulation vs. control (1 ng/ml in incubation medium, positive control)","Percent stimulation vs. control (1 ng/ml in incubation medium, positive control, listed as TGFb)","Percent stimulation vs. control (peptide at 1 ug/ml in incubation medium, listed as TRNDKL)","Percent stimulation vs. control (peptide at 10 ug/ml in incubation medium, listed as TRNDKL)"
H2-Val-Arg-Phe-Thr-Arg-Asn-OH (H-VRFTRN-OH) [Peptide 1],14.8%,15%,43.1%,43%,–,–,–,–
TGF b: potent stimulator of collagen synthesis in dermal fibroblast used as positive control [reference compound],–,–,–,–,45.7%,45%,–,–
H2-Thr-Arg-Asn-Asp-Lys-Leu-OH (H-TRNDKL-OH) [Peptide 2],23.5%,–,42.6%,–,–,–,25%,42%
